Measurements: ChEMBL document CHEMBL1201862, “PubChem BioAssay data set” (2004)
Calls of active or inactive are those of the source.

Experiments:
[1] = biological target: Cytochrome P450 3A4 (Homo sapiens, UniProt P08684);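 further: CYP3A4 tested as one member of a cytochrome P450 panel screen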
[2] = biological target: Tyrosine-protein phosphatase non-receptor type 11 (Homo sapiens, UniProt Q06124); experiment: PTPN11 enzyme inhibitors – biochemical, selectivity assay for STEP inhibitor project, dose response (AID 602367); format: functional; settings: read-out: IC50_Mean
[3] = biological target: Tyrosine-protein phosphatase non-receptor type 5 (Homo sapiens, UniProt P54829); experiment: PTPN5 enzyme inhibition – biochemical, fluorescence intensity, uHTS hits, confirmation (AID 602372); format: functional; settings: read-out: IC50_Mean
[4] = biological target: Dual specificity protein phosphatase 3 (Homo sapiens, UniProt P51452); experiment: VHR phosphatase inhibition, dose response, selectivity assay for STEP inhibitor project, biochemical (AID 602374); format: functional; settings: read-out: IC50_Mean
[5] = biological target: T1, Corticotropin-releasing factor receptor 2/Corticotropin-releasing factor-binding protein (Homo sapiens, UniProt P24387+Q13324); experiment: activators of CRF receptor 2 with binding protein – uHTS hits, confirmation (AID 602473); format: functional; settings: read-out: EC50_Mean
T1 sequence (Q13324 whole entry): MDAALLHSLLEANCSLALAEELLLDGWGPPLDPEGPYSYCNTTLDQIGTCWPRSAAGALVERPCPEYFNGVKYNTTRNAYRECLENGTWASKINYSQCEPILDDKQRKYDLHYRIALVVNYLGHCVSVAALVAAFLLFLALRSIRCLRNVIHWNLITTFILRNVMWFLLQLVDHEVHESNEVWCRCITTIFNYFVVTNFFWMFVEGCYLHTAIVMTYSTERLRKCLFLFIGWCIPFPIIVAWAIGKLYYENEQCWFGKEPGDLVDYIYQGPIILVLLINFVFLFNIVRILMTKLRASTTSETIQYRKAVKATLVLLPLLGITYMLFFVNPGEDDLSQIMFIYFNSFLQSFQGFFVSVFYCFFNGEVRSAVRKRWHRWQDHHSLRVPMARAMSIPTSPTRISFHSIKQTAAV
T1 sequence (P24387 whole entry): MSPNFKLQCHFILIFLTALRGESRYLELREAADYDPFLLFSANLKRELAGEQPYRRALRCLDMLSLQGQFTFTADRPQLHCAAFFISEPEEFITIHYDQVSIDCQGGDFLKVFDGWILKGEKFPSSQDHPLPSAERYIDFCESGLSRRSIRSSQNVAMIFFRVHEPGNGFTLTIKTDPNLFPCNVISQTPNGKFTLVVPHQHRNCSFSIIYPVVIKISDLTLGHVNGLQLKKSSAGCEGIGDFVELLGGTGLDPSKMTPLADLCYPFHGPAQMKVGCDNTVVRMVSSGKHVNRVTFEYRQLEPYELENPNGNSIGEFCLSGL

[6] = biological target: T1, Corticotropin-releasing factor receptor 2/Corticotropin-releasing factor-binding protein; experiment: Dose Response confirmation of uHTS hits for small molecule antagonists of the CRF-binding protein and CRF-R2 receptor complex.; format: functional; settings: read-out: IC50_Mean
[7] = blockers of CRF-binding protein–CRF-R2 complex – cell-based, uHTS hits, 384-well, dose response (AID 651639); format: functional, Homo sapiens; settings: read-out: IC50_Mean
[8] = biological target: Photoreceptor-specific nuclear receptor (Homo sapiens, UniProt Q9Y5X4); format: functional, cell-based;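 further: CHO-S cells with Gal4-NCOR and VP16-NR2E3 two-hybrid luciferase reporter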
[9] = NIH3T3 cell viability loss – ATP luminescence, mouse fibroblasts, counter-screen, dose response (AID 2010); format: functional, cell-based;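 further: cells exposed to compound for about 90 hours before reading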
[10] = Trypanosoma cruzi growth suppression in host cells – NIH3T3 host cells, beta-gal luminescence, confirmation (AID 2044); format: functional, cell-based;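 further: intracellular parasites grown in NIH/3T3 mouse fibroblasts as host cells; luminescent beta-galactosidase reporter signal from transgenic T. cruzi replicating inside host cells; inhibitors lower the luminescence signal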
[11] = biological target: T2, Rac GTPase-activating protein 1 (Homo sapiens, UniProt Q9H0H5); experiment: blockers of MgcRacGAP-driven Rac1 GTP hydrolysis – biochemical, ADP Hunter fluorescence, primary and confirmatory, confirmation (AID 624330); format: functional
T2 sequence (Q9H0H5 whole entry): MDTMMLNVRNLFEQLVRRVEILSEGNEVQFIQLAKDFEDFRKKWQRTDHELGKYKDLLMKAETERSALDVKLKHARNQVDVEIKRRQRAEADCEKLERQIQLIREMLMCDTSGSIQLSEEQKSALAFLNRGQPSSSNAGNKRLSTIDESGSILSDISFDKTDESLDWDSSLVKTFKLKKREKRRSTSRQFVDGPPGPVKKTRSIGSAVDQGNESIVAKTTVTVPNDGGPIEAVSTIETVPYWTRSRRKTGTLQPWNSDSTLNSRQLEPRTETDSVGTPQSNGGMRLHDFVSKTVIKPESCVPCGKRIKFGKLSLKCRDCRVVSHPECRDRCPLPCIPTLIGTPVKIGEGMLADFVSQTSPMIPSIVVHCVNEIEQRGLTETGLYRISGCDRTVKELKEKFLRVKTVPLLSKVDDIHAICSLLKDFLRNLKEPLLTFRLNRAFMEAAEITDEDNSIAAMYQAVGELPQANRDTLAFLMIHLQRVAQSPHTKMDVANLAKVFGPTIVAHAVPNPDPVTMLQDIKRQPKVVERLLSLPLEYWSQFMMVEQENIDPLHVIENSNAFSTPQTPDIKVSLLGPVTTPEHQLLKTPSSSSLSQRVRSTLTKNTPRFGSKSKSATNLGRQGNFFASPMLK

[12] = viability loss in HeLa cells – cytotoxicity control for MgcRacGAP inhibitor project, dose response (AID 624300); format: functional
[13] = biological target: T3, Mitochondrial peptide methionine sulfoxide reductase (Bos taurus, UniProt P54149); experiment: Absorbance-based biochemical high throughput dose response assay for activators of Methionine sulfoxide reductase A (MsrA).; format: functional
T3 sequence (P54149 whole entry): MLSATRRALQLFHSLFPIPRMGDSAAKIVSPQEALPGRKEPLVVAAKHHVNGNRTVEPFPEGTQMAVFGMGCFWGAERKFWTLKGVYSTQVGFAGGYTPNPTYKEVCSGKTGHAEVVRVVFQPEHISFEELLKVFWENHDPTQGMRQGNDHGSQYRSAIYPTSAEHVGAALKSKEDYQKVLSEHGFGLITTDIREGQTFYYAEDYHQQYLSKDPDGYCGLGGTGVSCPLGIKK

[14] = biological target: T4, Tyrosyl-DNA phosphodiesterase 2 (Homo sapiens, UniProt O95551); experiment: potency against TDP2 phosphodiesterase activity – biochemical, epi absorbance, IC50, dose response (AID 743297)
T4 sequence (O95551 whole entry): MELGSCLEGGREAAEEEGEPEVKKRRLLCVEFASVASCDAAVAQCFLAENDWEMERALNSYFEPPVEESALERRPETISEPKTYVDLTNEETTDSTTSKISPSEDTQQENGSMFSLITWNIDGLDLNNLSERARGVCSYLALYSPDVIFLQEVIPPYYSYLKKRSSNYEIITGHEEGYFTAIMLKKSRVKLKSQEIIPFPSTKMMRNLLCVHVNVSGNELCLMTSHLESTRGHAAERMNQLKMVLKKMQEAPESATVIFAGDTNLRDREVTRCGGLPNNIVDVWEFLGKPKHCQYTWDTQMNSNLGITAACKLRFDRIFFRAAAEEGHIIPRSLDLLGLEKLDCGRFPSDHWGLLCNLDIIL

[15] = loss of viability in HepG2 cells – cell-based, CellTiter-Glo, cherry-picked, cytotoxicity control for Shn3 inhibitor project, dose response (AID 624134); format: functional
[16] = reduction of Shn3 3'UTR-driven luciferase in osteoblasts – cell-based, Clone20 osteoblasts, firefly luciferase, cherry-picked, dose response (AID 624132); format: functional;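 further: firefly luciferase luminescence from reporter carrying the Shn3 3'UTR in osteoblasts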
[17] = non-specific 3'UTR reporter inhibition in Clone20-Shn3RL – cell-based, Renilla luciferase, cherry-picked, counter-screen for Shn3 inhibitor project, dose response (AID 624133); format: functional
[18] = biological target: Potassium voltage-gated channel subfamily KQT member 2 (Rattus norvegicus, UniProt O88943); experiment: blockers of KCNQ2 channel current – cell-based, automated electrophysiology, set II, rat KCNQ2, dose response (AID 588637); format: functional
[19] = system: Streptococcus sp. 'group A'; experiment: Streptococcus pyogenes SK(-)GAS viability under kanamycin – luminescence, BacTiterGlo, confirmation, counter-screen for streptokinase expression inhibitor project, dose response (AID 1900); format: functional, organism-based
[20] = system: Streptococcus; experiment: GAS UMAA2166 growth inhibition – luminescence, BacTiterGlo, counter-screen for streptokinase expression inhibitor project, dose response (AID 1915); format: functional, organism-based;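 further: potency for reduction of bacterial viability or growth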
[21] = biological target: T5, Streptokinase A (Streptococcus pyogenes serotype M1, UniProt P10520); experiment: viability-normalized secreted streptokinase activity reduction – plasminogen activation absorbance, OD405, dose response (AID 1914); format: functional, Streptococcus pyogenes M1 GAS;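 further: secreted streptokinase activity via plasminogen activation per viability signal from cell pellet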
T5 sequence (P10520 whole entry): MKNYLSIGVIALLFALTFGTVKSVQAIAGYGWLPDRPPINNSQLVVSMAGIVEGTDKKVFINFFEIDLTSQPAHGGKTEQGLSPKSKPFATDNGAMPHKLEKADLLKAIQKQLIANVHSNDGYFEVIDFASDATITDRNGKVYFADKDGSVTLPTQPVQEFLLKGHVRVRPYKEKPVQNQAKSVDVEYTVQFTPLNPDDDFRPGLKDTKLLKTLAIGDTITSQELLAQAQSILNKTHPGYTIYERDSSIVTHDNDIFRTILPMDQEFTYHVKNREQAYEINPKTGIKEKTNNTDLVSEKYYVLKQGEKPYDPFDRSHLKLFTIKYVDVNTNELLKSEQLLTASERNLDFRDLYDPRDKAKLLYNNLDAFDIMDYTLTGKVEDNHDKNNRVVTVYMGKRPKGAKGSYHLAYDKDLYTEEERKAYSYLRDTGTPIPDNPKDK

[22] = biological target: T6, Cysteine protease ATG4B (Homo sapiens, UniProt Q9Y4P1); format: functional;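 further: Fluorescence-based dose-response confirmation assay measuring inhibition of ATG4B activity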
T6 sequence (Q9Y4P1 whole entry): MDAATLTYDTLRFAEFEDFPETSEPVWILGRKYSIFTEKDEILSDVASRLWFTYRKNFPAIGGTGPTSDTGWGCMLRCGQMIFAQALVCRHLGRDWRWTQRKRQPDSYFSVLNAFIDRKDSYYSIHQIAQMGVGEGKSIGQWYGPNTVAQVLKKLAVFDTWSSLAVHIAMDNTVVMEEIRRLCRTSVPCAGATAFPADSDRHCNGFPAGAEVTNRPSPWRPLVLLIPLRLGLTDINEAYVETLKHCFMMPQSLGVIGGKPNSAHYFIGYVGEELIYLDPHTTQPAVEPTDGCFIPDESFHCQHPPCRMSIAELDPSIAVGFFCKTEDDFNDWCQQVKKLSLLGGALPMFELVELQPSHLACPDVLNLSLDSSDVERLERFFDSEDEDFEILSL

[23] = biological target: Phospholipase A2 (Homo sapiens, UniProt P04054); format: functional;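 further: confirmatory dose-response counterscreen on phospholipase A2, testing hits that came from an ultra-high-throughput screen for ATG4B inhibitors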
[24] = NIH-3T3 fibroblast cytotoxicity, dose response, cytotoxicity control, cell-based, fluorescence, Alamar Blue, secondary assay (AID 2327); format: functional;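 further: NIH-3T3 mouse fibroblasts cultured with fluconazole at 8 µg/mL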
[25] = biological target: 72 kDa type IV collagenase (Homo sapiens, UniProt P08253); experiment: Dose Response validation of uHTS RPN11 inhibitor hits using a MMP-2 Fluorescence assay.; format: functional
[26] = biological target: 26S proteasome non-ATPase regulatory subunit 14 (Homo sapiens, UniProt O00487); experiment: inhibition of proteasome subunit RPN11 – biochemical, fluorescence polarization, uHTS hits, confirmation (AID 602368); format: functional
[27] = fluconazole-exposed Candida albicans growth modulators – fluorescence, retest, confirmation (AID 2467); format: functional, cell-based
[28] = biological target: Prothrombin (Bos taurus, UniProt P00735); experiment: thrombin protease inhibitors – biochemical, fluorescence polarization, uHTS hits, dose response (AID 602369); format: functional

Sequence of Tyrosine-protein phosphatase non-receptor type 11 (Q06124 whole entry): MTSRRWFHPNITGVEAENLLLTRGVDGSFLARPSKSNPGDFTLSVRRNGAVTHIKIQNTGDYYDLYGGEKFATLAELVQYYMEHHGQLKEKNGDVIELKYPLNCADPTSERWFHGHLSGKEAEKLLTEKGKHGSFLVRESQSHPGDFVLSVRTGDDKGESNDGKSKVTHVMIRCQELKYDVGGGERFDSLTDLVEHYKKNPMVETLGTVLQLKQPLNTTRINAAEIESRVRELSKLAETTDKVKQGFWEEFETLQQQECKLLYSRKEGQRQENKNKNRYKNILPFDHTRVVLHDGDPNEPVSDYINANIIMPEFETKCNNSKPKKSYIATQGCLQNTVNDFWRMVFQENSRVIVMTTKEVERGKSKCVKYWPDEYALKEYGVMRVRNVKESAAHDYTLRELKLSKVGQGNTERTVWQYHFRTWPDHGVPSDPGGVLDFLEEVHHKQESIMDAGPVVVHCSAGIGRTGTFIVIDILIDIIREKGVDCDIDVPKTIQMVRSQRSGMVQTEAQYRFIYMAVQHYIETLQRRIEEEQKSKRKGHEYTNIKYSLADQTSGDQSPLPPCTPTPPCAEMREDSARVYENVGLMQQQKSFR
Sequence of Potassium voltage-gated channel subfamily KQT member 2 (O88943 whole entry): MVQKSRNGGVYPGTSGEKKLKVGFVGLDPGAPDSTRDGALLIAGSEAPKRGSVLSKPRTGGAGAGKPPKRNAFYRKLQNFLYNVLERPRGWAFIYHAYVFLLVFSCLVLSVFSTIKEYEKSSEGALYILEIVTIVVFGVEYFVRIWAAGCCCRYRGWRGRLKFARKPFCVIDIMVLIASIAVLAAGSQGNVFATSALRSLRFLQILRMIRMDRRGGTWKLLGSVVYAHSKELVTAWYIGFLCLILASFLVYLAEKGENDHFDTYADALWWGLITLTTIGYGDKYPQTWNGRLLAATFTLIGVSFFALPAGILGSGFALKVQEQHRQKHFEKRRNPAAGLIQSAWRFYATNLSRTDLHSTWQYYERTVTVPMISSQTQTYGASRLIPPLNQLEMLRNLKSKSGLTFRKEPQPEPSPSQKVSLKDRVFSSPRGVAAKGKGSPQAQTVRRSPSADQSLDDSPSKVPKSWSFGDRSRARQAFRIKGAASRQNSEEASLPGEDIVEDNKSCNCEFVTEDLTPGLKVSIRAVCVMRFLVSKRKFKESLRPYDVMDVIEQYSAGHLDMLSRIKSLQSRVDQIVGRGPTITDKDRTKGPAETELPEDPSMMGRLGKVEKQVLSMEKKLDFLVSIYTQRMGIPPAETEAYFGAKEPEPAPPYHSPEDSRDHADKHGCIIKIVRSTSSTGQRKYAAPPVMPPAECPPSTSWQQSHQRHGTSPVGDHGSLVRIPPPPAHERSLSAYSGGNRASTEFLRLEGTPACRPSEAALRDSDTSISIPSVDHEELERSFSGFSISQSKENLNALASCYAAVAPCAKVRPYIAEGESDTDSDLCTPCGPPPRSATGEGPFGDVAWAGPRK
Sequence of Photoreceptor-specific nuclear receptor (Q9Y5X4 whole entry, the tested form may be a part): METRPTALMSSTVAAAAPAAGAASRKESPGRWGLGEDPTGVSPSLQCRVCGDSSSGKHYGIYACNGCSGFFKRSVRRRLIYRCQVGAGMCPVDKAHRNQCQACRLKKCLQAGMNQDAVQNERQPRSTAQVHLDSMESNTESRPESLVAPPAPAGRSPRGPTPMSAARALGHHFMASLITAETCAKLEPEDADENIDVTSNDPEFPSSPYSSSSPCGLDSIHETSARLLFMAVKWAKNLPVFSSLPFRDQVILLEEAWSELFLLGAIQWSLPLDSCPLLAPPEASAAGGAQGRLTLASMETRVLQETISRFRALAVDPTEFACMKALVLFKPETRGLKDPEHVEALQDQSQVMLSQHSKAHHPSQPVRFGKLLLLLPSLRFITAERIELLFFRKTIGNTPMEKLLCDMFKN
Sequence of Dual specificity protein phosphatase 3 (P51452 whole entry): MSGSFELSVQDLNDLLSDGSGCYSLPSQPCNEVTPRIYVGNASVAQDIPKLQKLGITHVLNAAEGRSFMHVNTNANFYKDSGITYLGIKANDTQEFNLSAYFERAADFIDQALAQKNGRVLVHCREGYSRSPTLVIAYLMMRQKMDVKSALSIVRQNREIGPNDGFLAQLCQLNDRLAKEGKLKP
Sequence of Tyrosine-protein phosphatase non-receptor type 5 (P54829 whole entry): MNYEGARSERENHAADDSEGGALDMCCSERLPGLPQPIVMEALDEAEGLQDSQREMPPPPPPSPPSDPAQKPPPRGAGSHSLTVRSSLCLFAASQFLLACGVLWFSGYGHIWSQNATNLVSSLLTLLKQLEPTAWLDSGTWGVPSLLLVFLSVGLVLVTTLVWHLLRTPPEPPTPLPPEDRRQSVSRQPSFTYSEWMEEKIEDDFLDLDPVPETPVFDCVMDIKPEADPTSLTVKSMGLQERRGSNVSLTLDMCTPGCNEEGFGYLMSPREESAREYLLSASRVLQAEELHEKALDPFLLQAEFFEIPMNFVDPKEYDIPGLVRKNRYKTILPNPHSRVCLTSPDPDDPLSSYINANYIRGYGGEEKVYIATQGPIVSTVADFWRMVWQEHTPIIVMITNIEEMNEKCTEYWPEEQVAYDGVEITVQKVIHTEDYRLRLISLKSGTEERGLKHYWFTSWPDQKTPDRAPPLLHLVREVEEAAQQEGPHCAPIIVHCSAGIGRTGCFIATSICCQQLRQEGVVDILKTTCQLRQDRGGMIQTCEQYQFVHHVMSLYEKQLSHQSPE
Sequence of Phospholipase A2 (P04054 whole entry): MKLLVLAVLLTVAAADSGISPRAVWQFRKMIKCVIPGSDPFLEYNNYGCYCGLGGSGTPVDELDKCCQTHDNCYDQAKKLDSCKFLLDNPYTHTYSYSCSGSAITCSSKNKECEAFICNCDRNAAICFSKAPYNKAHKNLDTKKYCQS
Sequence of 72 kDa type IV collagenase (P08253 whole entry): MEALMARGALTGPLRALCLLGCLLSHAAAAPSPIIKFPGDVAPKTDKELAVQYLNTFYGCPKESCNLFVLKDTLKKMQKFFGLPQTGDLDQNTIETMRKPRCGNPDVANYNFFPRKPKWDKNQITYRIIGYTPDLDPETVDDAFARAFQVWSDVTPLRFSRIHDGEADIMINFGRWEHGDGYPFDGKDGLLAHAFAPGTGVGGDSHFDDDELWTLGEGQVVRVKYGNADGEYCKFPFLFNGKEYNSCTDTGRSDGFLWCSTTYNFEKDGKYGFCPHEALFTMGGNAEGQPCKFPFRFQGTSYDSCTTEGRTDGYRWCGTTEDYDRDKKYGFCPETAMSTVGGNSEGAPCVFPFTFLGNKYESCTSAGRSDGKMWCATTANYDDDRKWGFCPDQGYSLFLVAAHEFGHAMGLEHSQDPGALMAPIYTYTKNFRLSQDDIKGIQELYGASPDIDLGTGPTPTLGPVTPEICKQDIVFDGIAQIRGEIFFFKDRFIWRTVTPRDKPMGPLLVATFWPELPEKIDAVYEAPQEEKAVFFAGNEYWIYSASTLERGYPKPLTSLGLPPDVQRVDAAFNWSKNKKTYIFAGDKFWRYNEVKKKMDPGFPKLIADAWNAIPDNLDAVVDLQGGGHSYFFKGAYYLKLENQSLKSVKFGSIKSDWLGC
Sequence of 26S proteasome non-ATPase regulatory subunit 14 (O00487 whole entry): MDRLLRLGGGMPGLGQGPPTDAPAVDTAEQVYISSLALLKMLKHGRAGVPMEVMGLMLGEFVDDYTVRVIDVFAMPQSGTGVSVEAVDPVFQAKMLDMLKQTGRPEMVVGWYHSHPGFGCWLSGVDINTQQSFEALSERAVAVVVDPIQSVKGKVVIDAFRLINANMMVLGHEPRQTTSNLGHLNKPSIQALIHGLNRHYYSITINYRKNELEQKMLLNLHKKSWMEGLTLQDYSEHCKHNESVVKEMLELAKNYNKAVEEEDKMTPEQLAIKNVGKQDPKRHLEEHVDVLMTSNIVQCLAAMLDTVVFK
Sequence of Cytochrome P450 3A4 (P08684 whole entry): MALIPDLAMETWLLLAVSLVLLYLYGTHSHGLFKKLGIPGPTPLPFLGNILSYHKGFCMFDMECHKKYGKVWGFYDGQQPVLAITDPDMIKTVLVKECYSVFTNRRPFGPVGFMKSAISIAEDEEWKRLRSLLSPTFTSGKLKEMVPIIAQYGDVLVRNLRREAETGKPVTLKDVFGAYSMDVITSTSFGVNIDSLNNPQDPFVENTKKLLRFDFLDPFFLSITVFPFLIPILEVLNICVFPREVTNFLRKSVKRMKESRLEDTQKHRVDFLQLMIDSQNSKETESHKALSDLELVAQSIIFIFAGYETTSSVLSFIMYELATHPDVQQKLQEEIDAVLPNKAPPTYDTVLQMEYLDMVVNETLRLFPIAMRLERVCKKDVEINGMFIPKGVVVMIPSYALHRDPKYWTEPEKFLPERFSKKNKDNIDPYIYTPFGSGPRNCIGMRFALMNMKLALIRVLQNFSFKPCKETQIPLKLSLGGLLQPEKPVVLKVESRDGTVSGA

## CCN1CCN(C(=S)c2ccc(Br)cc2)CC1
[1]
  AC50: 17.8 µM (inconclusive)
[2]
  IC50: 1.88 µM (active)
[3]
  IC50: 39.4 µM (inactive)
[4]
  IC50: 0.942 µM (active)

## O=C(Nc1cc(Cl)cc(Cl)c1)c1coc(=O)c(Br)c1
[5]
  EC50: 15.1 µM (active)
[6]
  IC50: 8.37 µM (active)
[7]
  IC50: > 20 µM (inactive)

## O=C(CSc1nnnn1-c1ccc2c(c1)OCCO2)Nc1nc2c(s1)CCCC2
[8]
  IC50: 1.6 µM (active)

## Cn1nc([N+](=O)[O-])nc1Oc1ccc(C(C)(C)C)cc1
[9]
  EC50: > 60 µM (inconclusive)
[10]
  EC50: 0.201 µM (active)
[5]
  EC50: > 53 µM (inactive)
[6]
  IC50: 12.7 µM (active)
[7]
  IC50: 9.25 µM (active)

## COc1cc(NC(=S)N2CCN(C)CC2)c(OC)cc1Cl
[2]
  IC50: 7.71 µM (active)
[3]
  IC50: > 80 µM (inactive)
[4]
  IC50: 4 µM (active)

## COc1cc(C=c2c3ccccc3n3c2cc(-c2ccccc2)[n+]3C)cc(OC)c1OC
[11]
  IC50: 323 µM (active)
[12]
  CC50: 100 µM (active)
[13]
  EC50: > 104 µM (inactive)
[14]
  IC50: > 128 µM (inactive)

## C=C1C(=O)OC2CC(C)C3C=CC(=O)C3(C)C(O)C12 (stereo unspecified)
[15]
  AC50: 5.16 µM (active)
[8]
  IC50: 2.74 µM (active)
[16]
  AC50: < 0.26 µM (active)
[17]
  AC50: 2.68 µM (active)

## COc1ccc(CCN(C)C(=O)c2cc(-c3ccc(C)cc3)nc3ccccc23)cc1OC
[18]
  IC50: 0.59 µM (active)

## C/C(=N\Nc1nc(N2CCCCCC2)nc(N2CCCCCC2)n1)c1ccccc1
[18]
  IC50: 1.62 µM (active)
[19]
  EC50: 7.16 µM (active)
[20]
  EC50: 9.52 µM (active)
[21]
  EC50: 5.5 µM (active)

## COc1cc(OC)cc(-c2nnc(Nc3nc4c(F)cccc4s3)o2)c1
[22]
  IC50: 5.68 µM (active)
[23]
  IC50: > 80 µM (inactive)
[24]
  EC50: > 150 µM (inconclusive)
[25]
  IC50: > 100 µM (inactive)
[26]
  IC50: 30.1 µM (active)
[27]
  EC50: > 38 µM (not active)
[28]
  IC50: 62.8 µM (active)
